Like-named read-outs stand apart in the source and are kept apart here.
How the values were obtained:
[1] = tested on: P. falciparum Dd2 (clone B2) asexual blood stage parasites; test: P. falciparum Dd2 asexual blood stage SYBR Green-I 72 h proliferation assay (qHTS); assay type: cell-based, Plasmodium falciparum; conditions: averaged P. falciparum asexual blood stage potency, log10 of AC50 in M
HepG2-A16-CD81EGFP cells = conditions: averaged response (percent)
[2] = tested on: P. berghei-ANKA-GFP-LucCON liver stage parasites in HepG2-A16-CD81EGFP cells; test: P. berghei liver stage Pb-Luc assay, Method 1 (UCSD, 1536-well); assay type: cell-based, Plasmodium berghei; conditions: P. berghei liver stage, averaged response (percent); for Average P. berghei 1 µM response (%): the header list (r8) defines it as the 1 µM dose
in vitro = conditions: human, hepg2-a16-cd81egfp cells
[3] = HepG2, the header list (r10) describes it as the 1 µM dose

Cc1ccc(C)c(-n2c(-c3ccc(Br)cc3)csc2=NC(=O)c2ccccc2F)c1 [MLS000766129]
Pf ABS Log AC50 (M) [1]: -5.187 M
Average HepG2 3 µM response( %) (HepG2-A16-CD81EGFP cells; HepG2, 3 µM dose): 89%
Average HepG2 3 µM response( %) (HepG2-A16-CD81EGFP cells; [3]): 97%
Average P. berghei 3 µM response( %) [2]: 44%
Average P. berghei 1 µM response (%) [2]: 91%
viability at 3 µM (in vitro; % viability): 89.1%

COc1cc(C)cc(CN2CCC(Cc3ccccc3)CC2)c1O [MLS001178265]
Pf ABS Log AC50 (M) [1]: -6.137 M
Average HepG2 3 µM response( %) (HepG2-A16-CD81EGFP cells; HepG2, 3 µM dose): 88%
Average HepG2 3 µM response( %) (HepG2-A16-CD81EGFP cells; [3]): 97%
Average P. berghei 3 µM response( %) [2]: 102%
Average P. berghei 1 µM response (%) [2]: 89%
viability at 3 µM (in vitro; % viability): 87.6%

Cc1cc(C)n(-c2nnc(N3CCN(c4ccccc4)CC3)nn2)n1 [MLS000695202]
Pf ABS Log AC50 (M) [1]: -6.012 M
Average HepG2 3 µM response( %) (HepG2-A16-CD81EGFP cells; HepG2, 3 µM dose): 94%
Average HepG2 3 µM response( %) (HepG2-A16-CD81EGFP cells; [3]): 97%
Average P. berghei 3 µM response( %) [2]: 84%
Average P. berghei 1 µM response (%) [2]: 102%
viability at 3 µM (in vitro; % viability): 93.9%

Cc1cc(C)c(-c2csc(NC(=O)CCCc3nc4ccccc4c(=O)[nH]3)n2)c(C)c1 [MLS001156669]
Pf ABS Log AC50 (M) [1]: -5.900 M
Average HepG2 3 µM response( %) (HepG2-A16-CD81EGFP cells; HepG2, 3 µM dose): 103%
Average HepG2 3 µM response( %) (HepG2-A16-CD81EGFP cells; [3]): 99%
Average P. berghei 3 µM response( %) [2]: 12%
Average P. berghei 1 µM response (%) [2]: 72%
viability at 3 µM (in vitro; % viability): 103%

CCOc1ccc(-n2c(SCC(=O)OC)nc3sc4c(c3c2=O)CCN(C)C4)cc1 [MLS001213437]
Pf ABS Log AC50 (M) [1]: -5.950 M
Average HepG2 3 µM response( %) (HepG2-A16-CD81EGFP cells; HepG2, 3 µM dose): 103%
Average HepG2 3 µM response( %) (HepG2-A16-CD81EGFP cells; [3]): 112%
Average P. berghei 3 µM response( %) [2]: 102%
Average P. berghei 1 µM response (%) [2]: 88%
viability at 3 µM (in vitro; % viability): 103%

N=c1c2c(n(Cc3ccc(F)cc3)c3c1CCC3)CCC2 [MLS000107591]
Pf ABS Log AC50 (M) [1]: -5.862 M
Average HepG2 3 µM response( %) (HepG2-A16-CD81EGFP cells; HepG2, 3 µM dose): 78%
Average HepG2 3 µM response( %) (HepG2-A16-CD81EGFP cells; [3]): 100%
Average P. berghei 3 µM response( %) [2]: 16%
Average P. berghei 1 µM response (%) [2]: 68%
viability at 3 µM (in vitro; % viability): 77.7%

Cc1cc(O)c(CN2CCN(c3ccccc3)CC2)cc1C [MLS000569270]
Pf ABS Log AC50 (M) [1]: -5.650 M
Average HepG2 3 µM response( %) (HepG2-A16-CD81EGFP cells; HepG2, 3 µM dose): 107%
Average HepG2 3 µM response( %) (HepG2-A16-CD81EGFP cells; [3]): 102%
Average P. berghei 3 µM response( %) [2]: 97%
Average P. berghei 1 µM response (%) [2]: 88%
viability at 3 µM (in vitro): 107%

Cl.Oc1ccc(C2NCc3ccccc3-n3cccc32)cc1Cl (stereo not shown) [MLS000047999]
Pf ABS Log AC50 (M) [1]: -5.962 M
Average HepG2 3 µM response( %) (HepG2-A16-CD81EGFP cells; HepG2, 3 µM dose): 94%
Average HepG2 3 µM response( %) (HepG2-A16-CD81EGFP cells; [3]): 100%
Average P. berghei 3 µM response( %) [2]: 90%
Average P. berghei 1 µM response (%) [2]: 101%
viability at 3 µM (in vitro; % viability): 94%

Cc1cc(Nc2nc3ccccc3nc2Cl)n(-c2ccccc2C)n1 [MLS000595322]
Pf ABS Log AC50 (M) [1]: -6.062 M
Average HepG2 3 µM response( %) (HepG2-A16-CD81EGFP cells; HepG2, 3 µM dose): 98%
Average HepG2 3 µM response( %) (HepG2-A16-CD81EGFP cells; [3]): 93%
Average P. berghei 3 µM response( %) [2]: 93%
Average P. berghei 1 µM response (%) [2]: 114%
viability at 3 µM (in vitro; % viability): 98.3%

COc1ccc(NC(=O)CN(C)C(=O)c2ccc(-c3ccccc3Cl)o2)cc1 [MLS001078689]
Pf ABS Log AC50 (M) [1]: -5.750 M
Average HepG2 3 µM response( %) (HepG2-A16-CD81EGFP cells; HepG2, 3 µM dose): 105%
Average HepG2 3 µM response( %) (HepG2-A16-CD81EGFP cells; [3]): 99%
Average P. berghei 3 µM response( %) [2]: 111%
Average P. berghei 1 µM response (%) [2]: 109%
viability at 3 µM (in vitro; % viability): 105%

CCSc1nc2sc3c(c2c(=O)n1-c1ccccc1)CCN(C(C)C)C3 [MLS001173590]
Pf ABS Log AC50 (M) [1]: -6.000 M
Average HepG2 3 µM response( %) (HepG2-A16-CD81EGFP cells; HepG2, 3 µM dose): 93%
Average HepG2 3 µM response( %) (HepG2-A16-CD81EGFP cells; [3]): 100%
Average P. berghei 3 µM response( %) [2]: 63%
Average P. berghei 1 µM response (%) [2]: 91%
viability at 3 µM (in vitro; % viability): 92.6%

N=c1n(CCN2CCCCC2)c2ccccc2n1CC(=O)c1ccc(Cl)c(Cl)c1 [MLS001042209]
Pf ABS Log AC50 (M) [1]: -5.750 M
Average HepG2 3 µM response( %) (HepG2-A16-CD81EGFP cells; HepG2, 3 µM dose): 87%
Average HepG2 3 µM response( %) (HepG2-A16-CD81EGFP cells; [3]): 89%
Average P. berghei 3 µM response( %) [2]: 89%
Average P. berghei 1 µM response (%) [2]: 92%
viability at 3 µM (in vitro; % viability): 87.4%

NS(=O)(=O)c1ccc(N/N=C/c2cn(-c3ccccc3)nc2-c2cccs2)cc1 [MLS000393371]
Pf ABS Log AC50 (M) [1]: -6.762 M
Average HepG2 3 µM response( %) (HepG2-A16-CD81EGFP cells; HepG2, 3 µM dose): 94%
Average HepG2 3 µM response( %) (HepG2-A16-CD81EGFP cells; [3]): 91%
Average P. berghei 3 µM response( %) [2]: 24%
Average P. berghei 1 µM response (%) [2]: 69%
viability at 3 µM (in vitro; % viability): 94.1%

Nc1nonc1-n1nnc(C(=O)N/N=C/c2ccc(F)cc2)c1-c1ccc2c(c1)OCO2 [MLS001142639]
Pf ABS Log AC50 (M) [1]: -6.637 M
Average HepG2 3 µM response( %) (HepG2-A16-CD81EGFP cells; HepG2, 3 µM dose): 95%
Average HepG2 3 µM response( %) (HepG2-A16-CD81EGFP cells; [3]): 92%
Average P. berghei 3 µM response( %) [2]: 143%
Average P. berghei 1 µM response (%) [2]: 115%
viability at 3 µM (in vitro; % viability): 95.3%

O=C(Nc1ccc(-c2csc(Nc3cccc(C(F)(F)F)c3)n2)cc1)c1cc([N+](=O)[O-])cc(C(F)(F)F)c1 [MLS000911524]
Pf ABS Log AC50 (M) [1]: -5.387 M
Average HepG2 3 µM response( %) (HepG2-A16-CD81EGFP cells; HepG2, 3 µM dose): 101%
Average HepG2 3 µM response( %) (HepG2-A16-CD81EGFP cells; [3]): 101%
Average P. berghei 3 µM response( %) [2]: 73%
Average P. berghei 1 µM response (%) [2]: 100%
viability at 3 µM (in vitro; % viability): 101%

CCN(CC)CCn1c(=N)n(CC(O)COc2ccccc2C)c2ccccc21 (stereo not shown) [NCGC00101835]
Pf ABS Log AC50 (M) [1]: -5.475 M
Average HepG2 3 µM response( %) (HepG2-A16-CD81EGFP cells; HepG2, 3 µM dose): 100%
Average HepG2 3 µM response( %) (HepG2-A16-CD81EGFP cells; [3]): 104%
Average P. berghei 3 µM response( %) [2]: 72%
Average P. berghei 1 µM response (%) [2]: 117%

Cc1nn(-c2nnc(NCc3ccccc3)nn2)c(C)c1Br [MLS000704225]
Pf ABS Log AC50 (M) [1]: -6.187 M
Average HepG2 3 µM response( %) (HepG2-A16-CD81EGFP cells; HepG2, 3 µM dose): 93%
Average HepG2 3 µM response( %) (HepG2-A16-CD81EGFP cells; [3]): 102%
Average P. berghei 3 µM response( %) [2]: 57%
Average P. berghei 1 µM response (%) [2]: 106%

COc1cc(O)c(C(CCN2CCCC(C)C2)c2cc(OC)c(OC)c(OC)c2)c(OC)c1 (stereo not shown) [MLS000879467]
Pf ABS Log AC50 (M) [1]: -5.687 M
Average HepG2 3 µM response( %) (HepG2-A16-CD81EGFP cells; HepG2, 3 µM dose): 86%
Average HepG2 3 µM response( %) (HepG2-A16-CD81EGFP cells; [3]): 89%
Average P. berghei 3 µM response( %) [2]: 71%

Cc1cc(Cl)c(S(=O)(=O)N2CCN(c3ccccn3)CC2)cc1OCC(=O)NC1CCCCC1 [MLS000693481]
Pf ABS Log AC50 (M) [1]: -6.387 M
Average HepG2 3 µM response( %) (HepG2-A16-CD81EGFP cells; HepG2, 3 µM dose): 100%
Average HepG2 3 µM response( %) (HepG2-A16-CD81EGFP cells; [3]): 93%
Average P. berghei 3 µM response( %) [2]: 74%
Average P. berghei 1 µM response (%) [2]: 99%

c1ccc2c(NCCc3c[nH]c4ccccc34)c3ccccc3nc2c1 [MLS001195935]
Pf ABS Log AC50 (M) [1]: -5.937 M
Average HepG2 3 µM response( %) (HepG2-A16-CD81EGFP cells; HepG2, 3 µM dose): 82%
Average HepG2 3 µM response( %) (HepG2-A16-CD81EGFP cells; [3]): 91%
Average P. berghei 3 µM response( %) [2]: 47%

Oc1cc2c(cc1CN1CCN(c3ccccc3)CC1)CCC2 [MLS000058156]
Pf ABS Log AC50 (M) [1]: -5.587 M
Average HepG2 3 µM response( %) (HepG2-A16-CD81EGFP cells; HepG2, 3 µM dose): 101%
Average HepG2 3 µM response( %) (HepG2-A16-CD81EGFP cells; [3]): 102%
Average P. berghei 3 µM response( %) [2]: 107%
Average P. berghei 1 µM response (%) [2]: 92%

COc1cccc(OC)c1C(=O)NC(S)=Nc1ccc2c(c1)C(=O)N(C)C2=O [MLS000331897]
Pf ABS Log AC50 (M) [1]: -6.025 M
Average HepG2 3 µM response( %) (HepG2-A16-CD81EGFP cells; HepG2, 3 µM dose): 104%
Average HepG2 3 µM response( %) (HepG2-A16-CD81EGFP cells; [3]): 104%
Average P. berghei 3 µM response( %) [2]: 113%
Average P. berghei 1 µM response (%) [2]: 122%

N=c1n(N)c2ccccc2n1CC(=O)c1ccc(Br)cc1 [MLS001183984]
Pf ABS Log AC50 (M) [1]: -5.837 M
Average HepG2 3 µM response( %) (HepG2-A16-CD81EGFP cells; HepG2, 3 µM dose): 102%
Average HepG2 3 µM response( %) (HepG2-A16-CD81EGFP cells; [3]): 102%
Average P. berghei 3 µM response( %) [2]: 137%
Average P. berghei 1 µM response (%) [2]: 110%

O=C1CC(c2ccccc2)N(Cc2ccncc2)CCCN(C(=O)Nc2ccccc2F)CCN1 (stereo not shown) [NCGC00467191]
Pf ABS Log AC50 (M) [1]: -5.775 M
Average HepG2 3 µM response( %) (HepG2-A16-CD81EGFP cells; HepG2, 3 µM dose): 103%
Average HepG2 3 µM response( %) (HepG2-A16-CD81EGFP cells; [3]): 107%
Average P. berghei 3 µM response( %) [2]: 73%
Average P. berghei 1 µM response (%) [2]: 88%
